Results as given in US7919680B2, “Nucleic acids encoding anthelmintic agents and plants made therefrom” (Divergence, Inc., priority 2004, dated 2011).

Tests used:
[1] = tested on: C. elegans dauers; experiment: Nematicidal activity of methyl ester, salt and free fatty acid emulsions vs. C. elegans dauers (Table 4); format: in vivo, Caenorhabditis elegans
[2] = tested on: C. elegans; experiment: Nematicidal activity of methyl ester, salt and free fatty acid emulsions vs. C. elegans N2s (Table 3); format: in vivo, Caenorhabditis elegans
Excerpt: Nematicidal Activity of Single Fatty Acid Methyl Ester, Salt and Free Fatty Acid Emulsions Against Caenorhabditis elegans […] and Dauers

[3] = tested on: M. incognita; experiment: Nematicidal activity of fatty acid methyl ester emulsions against root knot nematode J2 larvae (Table 5); format: in vivo; conditions: 0.1% emulsion; 48 hours incubation, counted about 24 hours after transfer to plates
Method: (§1) M. incognita and M. javanica were prepared from tomato roots. The roots were bleached and the debris was separated from the J2 larvae and eggs by filtration followed by sucrose density gradient centrifugation. Eggs were hatched over 4 days at 15° C. and the J2 larvae were collected by passage though a filter, followed by centrifugation.
(§2) Nematodes and emulsions were incubated with shaking at room temperature for 48 hours. The contents of each well were transferred to a small spot on individual NGM plates lacking bacteria. About 24 hours after the transfer to plates, worms on and off the inoculation spot were counted as not viable or viable, respectively. Worms were considered viable if they had crawled away from the inoculation spot, or if they were moving. Worms were considered non-viable if they remained at the inoculation spot.

[4] = tested on: M. javanica; experiment: as above; format: in vivo; conditions: 0.1% emulsion; 48 hours incubation, counted about 24 hours after transfer to plates
Method: as §1, §2

[5] = tested on: C. elegans; experiment: Nematicidal activity of fatty acid methyl ester emulsions against C. elegans (Table 2)
[6] = tested on: M. javanica; experiment: Nematicidal activity of fatty acid methyl ester emulsions, nematode spectrum (Table 6); format: in vivo, Meloidogyne javanica; conditions: M. javanica 2nd stage juveniles, head 24 hr, b171 48 hours
Method: (§3) Briefly, the indicated fatty acid emulsions were added to nematodes in wells of a 24-well plate and rapidly mixed by swirling. […] Results shown are mean % values obtained from multiple independent experiments
(§4) The Caenorhabditis elegans were mixed stage populations. Similar effects were seen on several other free-living nematode species. The Parastrongyloides trichosuri (parasite of Australian bushtail possum) were dauer-like infective 3rd stage larva. Similar effects are also seen against free-living stages. The Meloidogyne incognita and Meloidogyne javanica (root knot nematode) were 2nd stage juveniles (dauer-like infective stage). The Heterodera glycines (soybean cyst nematode) were 2nd stage juveniles (dauer-like infective stage). Finally, the Pratylenchus scribneri (corn lesion nematode) were mixed stage populations.

[7] = tested on: C. elegans; experiment: as above; format: in vivo, Caenorhabditis elegans; conditions: C. elegans mixed stage
Method: as §3, §4

[8] = tested on: P. trichosuri; experiment: as above; format: in vivo, Parastrongyloides trichosuri; conditions: P. trichosuri infective 3rd stage larva
Method: as §3, §4

[9] = tested on: H. glycines; experiment: as above; format: in vivo, Heterodera glycines; conditions: H. glycines 2nd stage juveniles, head 24 hr, b171 48 hours
Method: as §3, §4

[10] = tested on: M. incognita; experiment: as above; format: in vivo, Meloidogyne incognita; conditions: M. incognita 2nd stage juveniles, head 24 hr, b171 48 hours
Method: as §3, §4

[11] = tested on: P. scribneri; experiment: as above; format: in vivo, Pratylenchus scribneri; conditions: P. scribneri mixed stage
Method: as §3, §4

[12] = tested on: C. elegans; experiment: Rescue of delta-12 fat2 RNAi feeding phenotype by fatty acid methyl esters; format: in vivo; conditions: for rescue of the delta-12 fat2 RNAi feeding phenotype: 3 mM added to NGM media
Excerpt: RNAi by feeding: C. elegans can be grown on lawns of E. coli genetically engineered to produce double stranded RNA (dsRNA) designed to inhibit delta-12 fat2 expression. Briefly, E. coli were transformed with a genomic fragment of a portion of the C. elegans fat2 gene sequence, specifically a fragment 651 nucleotides long, containing the entire first exon and terminating just before the conserved intron splice junction between the first exon and first intron. This construct encodes approximately the first 217 amino acids of the C. elegans delta-12 fat2 gene. The 651 nucleotide genomic fragment was cloned into an E. coli expression vector between opposing T7 polymerase promoters. The clone was then transformed into a strain of E. coli that carries an IPTG-inducible T7 polymerase. As a control, E. coli was transformed with a gene encoding the Green Fluorescent Protein (GFP). Feeding RNAi was initiated from C. elegans eggs or from C. elegans L4s. […] The sequence of the fat2 gene is of sufficiently high complexity (i.e., unique) such that the RNAi is not likely to represent cross reactivity with other genes.
The C. elegans delta-12 fatty acid desaturase (FAT-2 protein) converts the mono-unsaturated oleic acid to the di-unsaturated fatty acid linoleic acid. The delta-12 fat2 RNAi prevents expression of the delta-12 fatty acid desaturase, which is predicted to cause a decrease in levels of linoleic acid in the nematode, leading to arrested development and death.

[13] = tested on: tomato seedlings; experiment: Phytotoxicity evaluation of fatty acid methyl esters on tomato seedlings; format: in vivo; conditions: for phytotoxic effects on tomato seedlings: 250 μl of 1% emulsion at stem-media interface of two-week seedlings
Method: Sterilized tomato seeds were germinated in magenta jars containing Gamborg's agar media. After two weeks of growth, seedlings were treated with 250 μl of 1% fatty acid methyl ester emulsion (nonanoic acid, ricinoleic acid, ricinelaidic acid, oleic acid, or a control emulsion lacking any fatty acid), applied directly to the stem-media interface. Tomato seedlings were scored at various times after application of emulsions.

[14] = tested on: wide spectrum of divergent nematode genera; experiment: Summary of Table 6: free-living, animal parasitic and plant parasitic nematodes; format: in vivo
Method: as §3

Row | Compound | worm death ([1]; 0.01% emulsion) [%] | worm death ([1]; 0.1% emulsion) [%] | worm death ([2]; 0.001% emulsion) [%] | worm death ([2]; 0.01% emulsion) [%] | worm death ([2]; 0.1% emulsion) [%] | Percentage of Worm Death 1 hr ([5]; 0.003% emulsion) | Percentage of Worm Death 6 hr ([5]; 0.003% emulsion) | Percentage of Worm Death 24 hr ([5]; 0.003% emulsion) | Percentage of Worm Death 1 hr ([5]; 0.1% emulsion) | Percentage of Worm Death 6 hr ([5]; 0.1% emulsion) | Percentage of Worm Death 24 hr ([5]; 0.1% emulsion) | other results
1 | CCCCCC[C@@H](O)C/C=C\CCCCCCCC(=O)[O-].[K+] [Potassium R, potassium salt of ricinoleic acid] | 20 | 75 | 5 | 15 | 90 | – | – | – | – | – | – | –
2 | CCCCCC1OC1C/C=C\CCCCCCCC(=O)OC (stereo in doubt) [Vernolic Acid (C18-methyl ester), vernolic acid methyl ester] | – | – | – | – | – | 20% | 20% | 20% | 65% | 65% | 75% | M. incognita (% not viable) [3]: 100%; M. javanica (% not viable) [4]: 90%; % Worm Death (24 hr) ([6]; 0.01% solution): 60%; % Worm Death (24 hr) ([6]; 0.1% solution): 90%; % Worm Death (24 hr) ([7]; 0.001% solution): 30%; % Worm Death (24 hr) ([7]; 0.01% solution): 50%; % Worm Death (24 hr) ([7]; 0.1% solution): 80%; % Worm Death (24 hr) ([8]; 0.01% solution): ~90%; % Worm Death (24 hr) ([8]; 0.1% solution): ~95%; % Worm Death (24 hr) ([9]; 0.001% solution): 18%; % Worm Death (24 hr) ([9]; 0.01% solution): 20%; % Worm Death (24 hr) ([9]; 0.1% solution): 30%; % Worm Death (24 hr) ([10]; 0.01% solution): 73%; % Worm Death (24 hr) ([10]; 0.1% solution): 98%; % Worm Death (24 hr) ([11]; 0.01% solution): <20%; % Worm Death (24 hr) ([11]; 0.1% solution): <20%
3 | CCCCCCCC/C=C\CCCCCCCC(=O)OC [Oleic Acid (C18-methyl ester), oleic acid methyl ester] | – | – | – | – | – | 0-5% | 0-5% | 0-5% | 0-5% | 0-5% | 0-5% | rescue of the delta-12 fat2 RNAi feeding phenotype [12]: does not rescue
4 | CCCCCC[C@@H](O)C/C=C/CCCCCCCC(=O)OC [Re ME, ricinelaidic acid methyl ester] | 100 | 100 | 80 | 100 | 100 | – | – | – | – | – | – | % Worm Death (24 hr) ([6]; 0.001% solution): ~60%; % Worm Death (24 hr) ([6]; 0.01% solution): 100%; % Worm Death (24 hr) ([6]; 0.1% solution): 100%; % Worm Death (24 hr) ([7]; 0.001% solution): 75%; % Worm Death (24 hr) ([7]; 0.01% solution): 100%; % Worm Death (24 hr) ([7]; 0.1% solution): 100%; phytotoxic effects on tomato seedlings [13]: low phytotoxicity; % Worm Death (24 hr) ([8]; 0.01% solution): 100%; % Worm Death (24 hr) ([8]; 0.1% solution): 100%; % Worm Death (24 hr) ([9]; 0.001% solution): 100%; % Worm Death (24 hr) ([9]; 0.01% solution): 100%; % Worm Death (24 hr) ([9]; 0.1% solution): 100%; % Worm Death (24 hr) ([10]; 0.001% solution): 97%; % Worm Death (24 hr) ([10]; 0.01% solution): ~99%; % Worm Death (24 hr) ([10]; 0.1% solution): ~99%; % Worm Death (24 hr) ([11]; 0.01% solution): ~40%; % Worm Death (24 hr) ([11]; 0.1% solution): ~70%; nematicidal activity ([14]; concentrations of 0.1% and 0.01%): strongly nematicidal; breadth of nematicidal activity ([14]; summary of Table 6): favorable nematicidal activity against a wide spectrum of divergent nematode genera
5 | CCCCCC[C@@H](O)C/C=C/CCCCCCCC(=O)O [Re free acid*, ricinelaidic acid] | 75 | 75 | 40 | 98 | 100 | – | – | – | – | – | – | –
6 | CCCCCCCCC(=O)OC [Nonanoic (C9-methyl ester), pelargonic acid methyl ester] | – | – | 30 | 100 | 100 | 50% | 50% | 50% | 100% | 100% | 100% | "stun" effect ([5]; 0.003% emulsion, many nematodes recover several hours post inoculation): temporarily “stunned”; nematicidal activity ([5]; concentration of 0.1%): strongly nematicidal; onset of effect on nematode movement and death ([5]; emulsion, Table 2): almost immediate cessation of nematode movement and subsequent death; time to almost entire bleaching and near total collapse ([13]; 250 μl of 1% emulsion): ≤ 24 h; phytotoxic effects on tomato seedlings [13]: obvious phytotoxic effects
7 | CCCCC/C=C\C/C=C\CCCCCCCC(=O)O [L free acid, linoleic acid, reference compound] | 40 | 50 | <5 | <5 | 10 | – | – | – | – | – | – | –
8 | CCCCCC[C@@H](O)C/C=C/CCCCCCCC(=O)[O-].[Na+] [Sodium Re*, sodium salt of ricinelaidic acid] | – | – | – | 100 | 100 | – | – | – | – | – | – | –
9 | CCCCC/C=C\C/C=C\CCCCCCCC(=O)OC [Linoleic Acid (C18-methyl ester), linoleic acid methyl ester] | 20 | 40 | <5 | <5 | <5 | 0-5% | 0-5% | 0-5% | 0-5% | 0-5% | 0-5% | rescue of the delta-12 fat2 RNAi feeding phenotype [12]: partial rescue; P0 phenotype ([12]; fat2 RNAi feeding starting with L4 larvae, 3 mM fatty acid methyl ester in NGM media): Reduced egg laying
